According to BigSolDB 2.1:

CO[C@@]1(NC(=O)CSCC#N)C(=O)N2C(C(=O)O)=C(CSc3nnnn3C)CS[C@@H]21
solubility (mole fraction)
Details | 278.15 K | 283.15 K | 288.15 K | 293.15 K | 298.15 K | 303.15 K
in ethanol | 0.000215 | 0.000282 | 0.000369 | 0.000467 | 0.000596 | 0.000757
in isopropanol | 4.6e-05 | 6.16e-05 | 8.19e-05 | 0.000107 | 0.000138 | 0.000174
in methanol | 0.00154 | 0.00202 | 0.00264 | 0.00337 | 0.00429 | 0.00545
in water | 1.57e-05 | 2.05e-05 | 2.65e-05 | 3.46e-05 | 4.39e-05 | 5.52e-05
